Source: patent US20230202995A1, “HIGH EFFICIENT SEX PHEROMONE LURES FOR ECTROPIS OBLIQUE AND ECTROPIS GRISESCENS” (CHANGZHOU UNIVERSITY, priority 2021, published 2023)

System: E. oblique
Assay: Field trapping test with sex pheromone lures in traps, tea plantation
Type: in vivo, Ectropis oblique
Settings: lures with (3Z,6Z,9Z)-octadecatriene
Description: Embodiment 9: Field trapping tests were carried out at a tea plantation of Jintan Xinpin Tea Industry Co., Ltd., Changzhou City, Jiangsu Province. Sex pheromone lures used in the tests were made according to the schemes described in Embodiments 3-8, and a blank control was a lure made of n-hexane. The sex pheromone lure was used with a trap, each treatment process was repeated 3 times, and the number of trapped male pests in one month was counted.
(§1) Embodiment 50: Field trapping tests were carried out at the tea plantation of Jintan Xinpin Tea Industry Co., Ltd., Changzhou City, Jiangsu Province. Sex pheromone lures used in the test were made according to the schemes described in Embodiments 10-49, and a blank control was the lures made of n-hexane. The sex pheromone lures were used with a trap, each treatment process was repeated for 3 times, and the number of trapped insects in one month was counted.
as §1, with “53:” for “50:”, “51-52,” for “10-49,”, “in Embodiment 12.” for “of n-hexane.”, “lure was” for “lures were”, “repeated” for “repeated for”
as §1, with “54:” for “50:”, “Embodiment 12.” for “Embodiments 10-49, and a blank control was the lures made of n-hexane.”, “lure was” for “lures were”

| SMILES | Trapping effect on E. oblique (in words) |
| --- | --- |
| CC/C=C\C/C=C\C[C@H]1O[C@H]1CCCCCCCC [(3Z,6Z,9R,10S)-9,10-epoxy-octadecadiene] | no trapping effect at all |
| CC/C=C\C/C=C\C[C@@H]1O[C@@H]1CCCCCCCC [(3Z,6Z,9S,10R)-9,10-epoxy-octadecadiene] | no trapping effect at all |
| CC/C=C\C[C@H]1O[C@H]1C/C=C\CCCCCCCC [(3Z,9Z,6R,7S)-6,7-epoxy-octadecadiene] | certain trapping capacity |
| CC/C=C\C[C@@H]1O[C@@H]1C/C=C\CCCCCCCC [(3Z,9Z,6S,7R)-6,7-epoxy-octadecadiene] | certain trapping capacity |
| CCCCCCCC/C=C\C/C=C\C[C@@H]1O[C@@H]1CC [(6Z,9Z,3R,4S)-3,4-epoxy-octadecadiene] | no trapping effect at all |
| CCCCCCCC/C=C\C/C=C\C[C@H]1O[C@H]1CC [(6Z,9Z,3S,4R)-3,4-epoxy-octadecadiene] | no trapping effect at all |
